Experimental data taken from US12048317B2, “Astaxanthin-containing condiment and a preparation method therefor” (South China University of Technology, priority 2018, dated 2024).

Experiments:
Format in all cases: physicochemical
[1] = Encapsulation rate of the microcapsule powder (total pigment vs pigment on the surface); settings: Example 4 microcapsules
Protocol: (§1) This example selected the following optimal proportion: Supernatant (V, mL):gelatin (W, g):porous starch (W, g)=400:15:6 (core material (W, g):wall material (W, g)=3.95:21); the microencapsulation temperature was 40° C., and the microencapsulation time was 2 h. The encapsulation rate was calculated by detecting the total amount of pigment in the microcapsule powder and the amount of pigment on the surface (refer to Gomez-Estaca J. Food Hydrocolloids, 2016, 61:155-162). The amount of pigment on the surface was obtained by directly adding acetone for extraction. The total amount of pigment in the microcapsule powder was obtained as follows: dissolving the microcapsule powder in distilled water, shaking and then adding acetone thereto, mixing uniformly and then centrifuging, using petroleum ether to back-extract the pigment, and taking the upper layer of pigment-petroleum ether to measure the absorbance A with a spectrophotometer; if the pigment in the lower layer of acetone was not extracted completely, petroleum ether was added repeatedly until the organic solvent in the lower layer was colorless. Drug-loading rate refers to the amount of pigment contained in each gram of the microcapsule powder.

[2] = Drug-loading rate (amount of pigment contained in each gram of the microcapsule powder); settings: Example 4 microcapsules
Protocol: as §1

[3] = Concentration of astaxanthin in the aqueous supernatant after glass-bead wall breaking of P. rhodozyma (spectrophotometer); settings: water, 1 mm glass beads 500 g/L, 22° C., 150 rpm
Protocol: Adding P. rhodozyma to 20 mL of water to obtain yeast suspensions with concentrations of 20 g/L, 50 g/L and 100 g/L (dry weight), adding glass beads with a particle size of 1 mm to the yeast suspensions to make the content of the glass beads in the yeast suspensions 500 g/L, and then shaking to break walls in a shaker at 22° C. at a stirring speed of 150 rpm for 48 h. After breaking the wall, centrifuging at 10000 rpm for 10 min, and then collecting the precipitate and supernatant. Extracting astaxanthin in the supernatant with acetone and back-extracting it with petroleum ether, extracting the astaxanthin in the precipitate with acetone, and then using a spectrophotometer to detect the content of astaxanthin in the supernatant and precipitate. Using the amount of astaxanthin extracted by the acid-heat treatment method as a control, i.e., regarding the amount of astaxanthin extracted by the acid-heat treatment method by default as the total amount of astaxanthin for the calculation of the astaxanthin extraction rate.
Adding P. rhodozyma to 20 mL of water to obtain a yeast suspension with a concentration of 20 g/L (dry weight), adding glass beads with a particle size of 1 mm to the yeast suspension to make the content of the glass beads in the yeast suspension 500 g/L, and then shaking to break walls in a shaker at 22° C. at a stirring speed of 150 rpm for 6 h, 24 h and 48 h, respectively. After breaking the wall, centrifuging at 10000 rpm for 10 min, and then collecting the precipitate and supernatant. Extracting astaxanthin in the supernatant with acetone and back-extracting it with petroleum ether, extracting the astaxanthin in the precipitate with acetone, and then using a spectrophotometer to detect the content of astaxanthin in the supernatant and precipitate. Using the amount of astaxanthin extracted by the acid-heat treatment method as a control, i.e., regarding the amount of astaxanthin extracted by the acid-heat treatment method by default as the total amount of astaxanthin for the calculation of the astaxanthin extraction rate.

encapsulation rate of astaxanthin ([1]; concentration of yeast 20 g/L): 87.8%
encapsulation rate of astaxanthin ([1]; concentration of yeast 50 g/L): 78.69%
encapsulation rate of astaxanthin ([1]; concentration of yeast 100 g/L): 75.62%
drug-loading rate of astaxanthin ([2]; concentration of yeast 20 g/L): 3.45 mg/g
drug-loading rate of astaxanthin ([2]; concentration of yeast 50 g/L): 6.79 mg/g
drug-loading rate of astaxanthin ([2]; concentration of yeast 100 g/L): 10.42 mg/g
concentration of astaxanthin in the supernatant after the wall breaking ([3]; P. rhodozyma 20 g/L, 6 h): 93.72 µg/mL
concentration of astaxanthin in the supernatant after the wall breaking ([3]; P. rhodozyma 20 g/L, 24 h): 306.43 µg/mL
concentration of astaxanthin in the supernatant after the wall breaking ([3]; P. rhodozyma 20 g/L, 48 h): 459.57 µg/mL
concentration of astaxanthin in the supernatant after the wall breaking ([3]; P. rhodozyma 50 g/L, 48 h): 843.06 µg/mL
concentration of astaxanthin in the supernatant after the wall breaking ([3]; P. rhodozyma 100 g/L, 48 h): 1043.17 µg/mL
Compound: CC1=C(/C=C/C(C)=C/C=C/C(C)=C/C=C/C=C(C)/C=C/C=C(C)/C=C/C2=C(C)C(=O)[C@@H](O)CC2(C)C)C(C)(C)C[C@H](O)C1=O [astaxanthin]
